# Assay results published in patent publication US8617607B2, “Sustained release formulations of psychoactive drugs” (TYRX, Inc., priority 2008, dated 2013).
# Conditions: 0.1% solution, PBS, 37° C.
compound,measurement,value
"Cc1cc2c(s1)Nc1ccccc1N=C2N1CCN(C)CC1 [Olanzapine, 2-methyl-4-(4-methyl-1-piperazinyl)-10H-thieno[2,3-b][1,5]benzodiazepine]",time for which olanzapine was stable,≥ 14 days
